Experimental data: patent publication US12606541B2, “PPARg modulators and methods of use” (Eisai R&D Management Co., Ltd., priority 2020, dated 2026)

Molecular target: T1, His6-TEV-PPARγ-(234-505) (Homo sapiens, UniProt P37231)
T1 construct: The His6-TEV-PPARγ-(234-505) protein for assay was expressed and purified; TEV cleavage site (N); made in house
T1 sequence (P37231 234-505): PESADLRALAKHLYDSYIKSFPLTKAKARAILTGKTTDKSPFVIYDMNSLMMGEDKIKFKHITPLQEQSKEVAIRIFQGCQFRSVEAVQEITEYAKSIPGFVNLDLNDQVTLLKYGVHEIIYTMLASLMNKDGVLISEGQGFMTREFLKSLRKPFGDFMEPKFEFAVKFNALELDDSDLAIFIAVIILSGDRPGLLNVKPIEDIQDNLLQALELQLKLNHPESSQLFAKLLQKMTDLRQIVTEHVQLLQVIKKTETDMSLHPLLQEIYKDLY
Assay: TR-FRET Assay to Measure Co-R Peptide Recruitment to PPARγ
Format: biochemical
Settings: Co-R peptide recruitment to PPARγ; read-out: TR-FRET AC50
Procedure: TR-FRET Assay to Measure Co—R Peptide Recruitment to PPARγ
The 2× detection solution contained anti-6×His-Terbium antibody (CisBio) and FITC labeled Co—R peptide (SMRT-ID2 from New England Peptide) at final concentrations of 5 and 200 nM respectively.
In these assay plates, the positive control in column 24 contained 500 nM (final) T0070907 and the negative control in column 23 contained an identical volume of DMSO. Then, 5 μL of 2+ protein working stock or controls were added to the plate and incubated for 20 minutes at room temperature. Reagents additions were performed with either a Combi (Thermo) or Mantis (Formulatory) pipetting device. The incubation was followed by addition of 5 μL of the 2× detection solution. Plates were covered, centrifuged, and incubated for an additional hour. The TR-FRET data was recorded with an Envision plate reader (Perkin Elmer), using settings recommended by Thermo Fisher. The TR-FRET signal of the positive and negative control's recruitment of FITC-Co—R peptide was used to normalize the TR-FRET signal to percent response and to determine the assay Z prime. Experiments were performed in triplicate and analyzed in GraphPad Prism 7.

AC50, > 1 µM:
COc1cc(-c2cc(C(=O)N3CCC(C(=O)Nc4nc(C)cn4C)CC3)n[nH]2)c(Cl)cn1 [1-[5-(5-chloro-2-methoxypyridin-4-yl)-1H-pyrazole-3-carbonyl]-N-(1,4-dimethyl-1H-imidazol-2-yl)piperidine-4-carboxamide]
O=C(Nc1cccc(Cl)c1)C1CCN(C(=O)c2cc(-c3ccncc3)[nH]n2)CC1 [N-(3-chlorophenyl)-1-[5-(pyridin-4-yl)-1H-pyrazole-3-carbonyl]piperidine-4-carboxamide]
COc1cc(-c2cc(C(=O)N3CCC(C(=O)NCc4c(F)ccc(C)c4F)CC3)n[nH]2)c(Cl)cn1 [1-[5-(5-chloro-2-methoxypyridin-4-yl)-1H-pyrazole-3-carbonyl]-N-[(2,6-difluoro-3-methylphenyl)methyl]piperidine-4-carboxamide]
COc1c(Cl)cccc1CNC(=O)C1CCN(C(=O)c2cc(-c3ccncc3)[nH]n2)CC1 [N-[(3-chloro-2-methoxyphenyl)methyl]-1-[5-(pyridin-4-yl)-1H-pyrazole-3-carbonyl]piperidine-4-carboxamide]
CN(C)[C@@H]1CCN(C(=O)C2CCN(C(=O)c3cc(-c4ccncc4)[nH]n3)CC2)C1 [(3R)—N,N-dimethyl-1-{1-[5-(pyridin-4-yl)-1H-pyrazole-3-carbonyl]piperidine-4-carbonyl}pyrrolidin-3-amine]
COc1cc(-c2cc(C(=O)N3CCC(C(=O)NC4CC4)CC3)n[nH]2)c(Cl)cn1 [1-[5-(5-chloro-2-methoxypyridin-4-yl)-1H-pyrazole-3-carbonyl]-N-cyclopropylpiperidine-4-carboxamide]
COc1cc(-c2cc(C(=O)N3CCC(C(=O)NCc4ccc5c(c4)CN(C)C5)CC3)n[nH]2)c(Cl)cn1 [1-[5-(5-chloro-2-methoxypyridin-4-yl)-1H-pyrazole-3-carbonyl]-N-[(2-methyl-2,3-dihydro-1H-isoindol-5-yl)methyl]piperidine-4-carboxamide]
CC1CCC(NC(=O)C2CCN(C(=O)c3cc(-c4ccnc(C#N)c4)[nH]n3)CC2)CC1 (centres unmarked) [1-[5-(2-cyanopyridin-4-yl)-1H-pyrazole-3-carbonyl]-N-(4-methylcyclohexyl)piperidine-4-carboxamide]
COc1cc(-c2cc(C(=O)N3CCC(C(=O)NCc4cccc(Cl)c4)C4C3C4(F)F)n[nH]2)c(Cl)cn1 (centres unmarked) [2-[5-(5-chloro-2-methoxypyridin-4-yl)-1H-pyrazole-3-carbonyl]-N-[(3-chlorophenyl)methyl]-7,7-difluoro-2-azabicyclo[4.1.0]heptane-5-carboxamide]
COc1cc(-c2cc(C(=O)N3CCC(C(=O)Nc4cnc(C)cn4)CC3)n[nH]2)c(Cl)cn1 [1-[5-(5-chloro-2-methoxypyridin-4-yl)-1H-pyrazole-3-carbonyl]-N-(5-methylpyrazin-2-yl)piperidine-4-carboxamide]
COc1cc(-c2cc(C(=O)N3CCC[C@H](C(=O)NCc4cccc(Cl)c4)C3)n[nH]2)c(F)cn1 [(3S)—N-[(3-chlorophenyl)methyl]-1-[5-(5-fluoro-2-methoxypyridin-4-yl)-1H-pyrazole-3-carbonyl]piperidine-3-carboxamide]
O=C(NC1CCOCC1)C1CCN(C(=O)c2cc(-c3ccncc3)[nH]n2)CC1 [N-(oxan-4-yl)-1-[5-(pyridin-4-yl)-1H-pyrazole-3-carbonyl]piperidine-4-carboxamide]
C[C@H]1CC[C@H](NC(=O)C2CCN(C(=O)c3cc(-c4ccncc4)[nH]n3)CC2)CC1
COc1cc(-c2cc(C(=O)N3CCC(C(=O)NCC4CN(C)CCO4)CC3)n[nH]2)c(Cl)cn1 (centres unmarked) [1-[5-(5-chloro-2-methoxypyridin-4-yl)-1H-pyrazole-3-carbonyl]-N-[(4-methylmorpholin-2-yl)methyl]piperidine-4-carboxamide]
COc1cc(-c2cc(C(=O)N3CCC(C(=O)NCc4ncon4)CC3)n[nH]2)c(Cl)cn1 [1-[5-(5-chloro-2-methoxypyridin-4-yl)-1H-pyrazole-3-carbonyl]-N-[(1,2,4-oxadiazol-3-yl)methyl]piperidine-4-carboxamide]
CN1CCCN(C(=O)C2CCN(C(=O)c3cc(-c4ccncc4)[nH]n3)CC2)CC1
COc1cc(-c2cc(C(=O)N3CCC(OCC(F)(F)F)(C(=O)NCc4cccc(Cl)c4)CC3)n[nH]2)c(Cl)cn1 [1-[5-(5-chloro-2-methoxypyridin-4-yl)-1H-pyrazole-3-carbonyl]-N-[(3-chlorophenyl)methyl]-4-(2,2,2-trifluoroethoxy)piperidine-4-carboxamide]
COc1cc(-c2cc(C(=O)N3CCC(C(=O)NCc4ccn5ccnc5c4)CC3)n[nH]2)c(Cl)cn1 [1-[5-(5-chloro-2-methoxypyridin-4-yl)-1H-pyrazole-3-carbonyl]-N-({imidazo[1,2-a]pyridin-7-yl}methyl)piperidine-4-carboxamide]
COc1cc(-c2cc(C(=O)N3CCC(C)(C(=O)NC4CCC(C)CC4)CC3)n[nH]2)ccn1 (centres unmarked) [1-[5-(2-methoxypyridin-4-yl)-1H-pyrazole-3-carbonyl]-4-methyl-N-(4-methylcyclohexyl)piperidine-4-carboxamide]
Cc1csc(CNC(=O)C2CCN(C(=O)c3cc(-c4ccncc4)[nH]n3)CC2)n1 [N-[(4-methyl-1,3-thiazol-2-yl)methyl]-1-[5-(pyridin-4-yl)-1H-pyrazole-3-carbonyl]piperidine-4-carboxamide]
O=C(Nc1ccc(Cl)cc1)C1CCN(C(=O)c2cc(-c3ccncc3)[nH]n2)CC1 [N-(4-chlorophenyl)-1-[5-(pyridin-4-yl)-1H-pyrazole-3-carbonyl]piperidine-4-carboxamide]
CC1CCCCC1NC(=O)C1CCN(C(=O)c2cc(-c3ccncc3)[nH]n2)CC1 (centres unmarked) [N-(2-methylcyclohexyl)-1-[5-(pyridin-4-yl)-1H-pyrazole-3-carbonyl]piperidine-4-carboxamide]
Cc1cccc(C)c1NC(=O)C1CCN(C(=O)c2cc(-c3ccncc3)[nH]n2)CC1 [N-(2,6-dimethylphenyl)-1-[5-(pyridin-4-yl)-1H-pyrazole-3-carbonyl]piperidine-4-carboxamide]
COc1cc(-c2cc(C(=O)N3CCC(C(=O)Nc4nccnc4O)CC3)n[nH]2)c(Cl)cn1 [1-[5-(5-chloro-2-methoxypyridin-4-yl)-1H-pyrazole-3-carbonyl]-N-(3-hydroxypyrazin-2-yl)piperidine-4-carboxamide]
COc1cccc(CNC(=O)C2CCN(C(=O)c3cc(-c4ccncc4)[nH]n3)CC2)c1 [N-[(3-methoxyphenyl)methyl]-1-[5-(pyridin-4-yl)-1H-pyrazole-3-carbonyl]piperidine-4-carboxamide]
COc1cc(-c2cc(C(=O)N3CCC(C(=O)NC4c5ccccc5CC4O)CC3)n[nH]2)c(Cl)cn1 (centres unmarked) [1-[5-(5-chloro-2-methoxypyridin-4-yl)-1H-pyrazole-3-carbonyl]-N-(2-hydroxy-2,3-dihydro-1H-inden-1-yl)piperidine-4-carboxamide]
